Laboratory results reported in ChEMBL document CHEMBL1201862, “PubChem BioAssay data set” (2004).
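Where inhibition never reached the appropriate level, the endpoint shown equals the highest concentration tested. Otherwise, values were interpolated linearly from a five-concentration, 48-hour dose response in 96-well plates. Here, GI50 denotes the concentration required for 50% inhibition of growth.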 The source made the active and inactive calls. No stated cut-off is given here; in the data, active = GI50 up to about 1.1 µM and inactive = higher.

Experiments:
Assay in all cases: inhibition of tumour cell growth, NCI panel, 48 h
ACHN = tested on: ACHN
UACC-257 = tested on: UACC-257
NCI-H522 = tested on: NCI-H522
CAKI-1 = tested on: CAKI-1
SNB-75 = tested on: SNB-75
UO-31 = tested on: UO-31
Malme-3M = tested on: Malme-3M
HT-29 = tested on: HT-29
HOP-92 = tested on: HOP-92
SW-620 = tested on: SW-620
KM12 = tested on: KM12
SK-MEL-28 = tested on: SK-MEL-28
NCI-H23 = tested on: NCI-H23
SF-539 = tested on: SF-539
IGROV-1 = tested on: IGROV-1
NCI/ADR-RES = tested on: NCI/ADR-RES
786-0 = tested on: 786-0
RXF 393 = tested on: RXF 393
RPMI-8226 = tested on: RPMI-8226
SR = tested on: SR

Measured: GI50

CN(C)C(=S)C(Cl)(c1ccccc1)c1ccccc1
inactive: ACHN 90.2 µM | UACC-257 > 100 µM | NCI-H522 33.3 µM | CAKI-1 > 100 µM | SNB-75 15.8 µM | UO-31 84.9 µM | Malme-3M > 100 µM | HT-29 22.6 µM | HOP-92 > 100 µM | SW-620 34 µM | KM12 46.3 µM | SK-MEL-28 > 100 µM | NCI-H23 53.3 µM | SF-539 36.6 µM | IGROV-1 > 100 µM | NCI/ADR-RES 89.5 µM | 786-0 44.4 µM

FC(F)(F)c1nc2cc(SSc3cc4nc(C(F)(F)F)[nH]c4cc3Cl)c(Cl)cc2[nH]1
inactive: ACHN > 100 µM | RXF 393 > 100 µM | UACC-257 93.1 µM | RPMI-8226 > 100 µM | NCI-H522 66.4 µM | CAKI-1 > 100 µM | Malme-3M 82.8 µM | HT-29 > 100 µM | SW-620 > 100 µM | SK-MEL-28 > 100 µM | NCI-H23 > 100 µM | SF-539 > 100 µM | IGROV-1 > 100 µM | NCI/ADR-RES > 100 µM | 786-0 > 100 µM

Cc1ccc(Nc2n[nH]c(=S)s2)cc1
inactive: ACHN > 100 µM | RXF 393 > 100 µM | UACC-257 > 100 µM | RPMI-8226 > 100 µM | CAKI-1 > 100 µM | SNB-75 > 100 µM | UO-31 87.9 µM | Malme-3M > 100 µM | HT-29 > 100 µM | HOP-92 > 100 µM | SW-620 > 100 µM | KM12 69 µM | SK-MEL-28 > 100 µM | NCI-H23 > 100 µM | SF-539 > 100 µM | SR > 100 µM | NCI/ADR-RES > 100 µM | 786-0 > 100 µM

Cc1cc(Oc2cnc(=O)[nH]c2)cs1
inactive: ACHN > 100 µM | UACC-257 > 100 µM | RPMI-8226 > 100 µM | NCI-H522 > 100 µM | CAKI-1 > 100 µM | SNB-75 > 100 µM | UO-31 > 100 µM | Malme-3M > 100 µM | HT-29 > 100 µM | SW-620 > 100 µM | KM12 > 100 µM | SK-MEL-28 > 100 µM | NCI-H23 > 100 µM | SF-539 > 100 µM | IGROV-1 > 100 µM | SR > 100 µM | NCI/ADR-RES > 100 µM | 786-0 > 100 µM

CCC1CCN=C(Cn2cc(C)c(=O)[nH]c2=O)N1 (configuration not stated)
inactive: ACHN > 100 µM | RXF 393 > 100 µM | UACC-257 > 100 µM | NCI-H522 > 100 µM | SNB-75 > 100 µM | UO-31 > 100 µM | Malme-3M > 100 µM | HT-29 > 100 µM | HOP-92 > 100 µM | SW-620 > 100 µM | SK-MEL-28 > 100 µM | NCI-H23 > 100 µM | IGROV-1 > 100 µM | NCI/ADR-RES > 100 µM | 786-0 > 100 µM

CNC(=S)N/N=C(\C)c1cc(OC)c(OC)cc1O
inactive: ACHN > 100 µM | RXF 393 > 100 µM | UACC-257 > 100 µM | RPMI-8226 > 100 µM | CAKI-1 > 100 µM | SNB-75 > 100 µM | UO-31 > 100 µM | Malme-3M > 100 µM | HT-29 > 100 µM | SW-620 > 100 µM | KM12 > 100 µM | SK-MEL-28 > 100 µM | SF-539 > 100 µM | IGROV-1 > 100 µM | SR > 100 µM | NCI/ADR-RES > 100 µM | 786-0 > 100 µM

CCOC(=O)c1c(CN2CCOCC2)n(Cc2ccccc2)c2c1cc(O)c1nc(C)c(C)nc12
inactive: ACHN 28.6 µM | UACC-257 > 100 µM | RPMI-8226 30.3 µM | CAKI-1 22.1 µM | SNB-75 9.98 µM | UO-31 36.1 µM | Malme-3M 45.8 µM | HT-29 > 100 µM | SW-620 > 100 µM | KM12 > 100 µM | SK-MEL-28 > 100 µM | NCI-H23 35.5 µM | SF-539 30.8 µM | SR 44 µM | NCI/ADR-RES 35.5 µM | 786-0 27.7 µM

COc1ccc(CC(COS(=O)(=O)c2ccc(C)cc2)NS(=O)(=O)c2ccc(C)cc2)cc1 (configuration not stated)
inactive: ACHN 12.3 µM | RXF 393 3.27 µM | UACC-257 15.8 µM | RPMI-8226 15.2 µM | NCI-H522 7.01 µM | CAKI-1 17.4 µM | SNB-75 8.91 µM | UO-31 12.4 µM | Malme-3M 10.7 µM | HT-29 10.2 µM | HOP-92 6.56 µM | SW-620 10.9 µM | KM12 16.9 µM | SK-MEL-28 15.5 µM | NCI-H23 13.7 µM | SF-539 17.1 µM | IGROV-1 7.87 µM | NCI/ADR-RES 11 µM | 786-0 16 µM

COc1ccc2c(C)c(Oc3c(Cl)c(Cl)c(O)c(C#N)c3C#N)oc2c1
inactive: ACHN > 100 µM | UACC-257 > 100 µM | RPMI-8226 > 100 µM | NCI-H522 > 100 µM | CAKI-1 > 100 µM | SNB-75 > 100 µM | UO-31 > 100 µM | Malme-3M > 100 µM | HT-29 > 100 µM | SW-620 > 100 µM | KM12 > 100 µM | SK-MEL-28 > 100 µM | NCI-H23 > 100 µM | SF-539 > 100 µM | IGROV-1 > 100 µM | SR > 100 µM | NCI/ADR-RES > 100 µM | 786-0 > 100 µM

COc1ccc(-c2nc(SCC(=O)N/N=C/c3ccc([N+](=O)[O-])cc3)[nH]c2-c2ccc(OC)cc2)cc1
inactive: ACHN 20.1 µM | RXF 393 11.4 µM | UACC-257 16.4 µM | RPMI-8226 8.91 µM | NCI-H522 6.95 µM | CAKI-1 28.1 µM | SNB-75 15.2 µM | UO-31 18.8 µM | Malme-3M 17.5 µM | HT-29 8.41 µM | HOP-92 12.6 µM | SW-620 12.6 µM | KM12 4.86 µM | SK-MEL-28 21.7 µM | NCI-H23 21.9 µM | SF-539 11.9 µM | IGROV-1 10.8 µM | NCI/ADR-RES 19.1 µM | 786-0 20 µM

CC(C)CCCC(C)[C@H]1CCC2[C@@H]3CCC4Cc5nc6c(nc5C[C@]4(C)C3CC[C@@]21C)CC1CC[C@@H]2C(CC[C@@]3(C)C2CC[C@@H]3C(C)CCCC(C)C)[C@@]1(C)C6 (some centres not stated)
inactive: ACHN > 100 µM | RXF 393 > 100 µM | UACC-257 > 100 µM | RPMI-8226 > 100 µM | SNB-75 38.8 µM | UO-31 > 100 µM | Malme-3M > 100 µM | HT-29 > 100 µM | HOP-92 > 100 µM | SW-620 > 100 µM | KM12 > 100 µM | SK-MEL-28 > 100 µM | NCI-H23 > 100 µM | SF-539 > 100 µM | IGROV-1 > 100 µM | SR > 100 µM | NCI/ADR-RES > 100 µM | 786-0 > 100 µM

CCCCc1ccc(-n2sc3ncc([N+](=O)[O-])cc3c2=O)cc1
inactive: ACHN 14.8 µM | UACC-257 16.6 µM | RPMI-8226 9.12 µM | NCI-H522 1.2 µM | CAKI-1 13.4 µM | SNB-75 4.22 µM | UO-31 12.5 µM | Malme-3M 7.8 µM | HT-29 13.8 µM | SW-620 16.8 µM | KM12 12 µM | SK-MEL-28 14.1 µM | NCI-H23 11.2 µM | SF-539 15.3 µM | IGROV-1 13.8 µM | SR 16 µM | NCI/ADR-RES 11.5 µM | 786-0 15 µM

O=S(=O)(O)c1cc(/N=N/c2c(O)ccc3ccccc23)ccc1/C=C/c1ccc(/N=N/c2c(O)ccc3ccccc23)cc1S(=O)(=O)O
inactive: ACHN > 100 µM | RXF 393 > 100 µM | UACC-257 > 100 µM | RPMI-8226 > 100 µM | NCI-H522 > 100 µM | CAKI-1 > 100 µM | SNB-75 > 100 µM | UO-31 > 100 µM | Malme-3M 26.9 µM | HT-29 > 100 µM | HOP-92 > 100 µM | SW-620 > 100 µM | KM12 > 100 µM | SK-MEL-28 > 100 µM | NCI-H23 > 100 µM | IGROV-1 70.3 µM | NCI/ADR-RES > 100 µM | 786-0 > 100 µM

O=c1c2ccccc2[nH]c2c(O)ccc(O)c12
inactive: ACHN 17.3 µM | RXF 393 11.7 µM | UACC-257 18.1 µM | RPMI-8226 22.8 µM | NCI-H522 15.1 µM | CAKI-1 13.9 µM | SNB-75 > 10 µM | UO-31 37.7 µM | Malme-3M 24 µM | HT-29 38.6 µM | HOP-92 18.8 µM | SW-620 18 µM | KM12 45.1 µM | SK-MEL-28 18.8 µM | NCI-H23 27.4 µM | SF-539 27.6 µM | IGROV-1 15.1 µM | SR 7.33 µM | 786-0 18.8 µM

CCCCCCCC(=O)NS(=O)(=O)c1ccccc1
inactive: ACHN > 100 µM | RPMI-8226 > 100 µM | NCI-H522 73.3 µM | CAKI-1 > 100 µM | SNB-75 > 100 µM | UO-31 > 100 µM | Malme-3M > 100 µM | HT-29 > 100 µM | SW-620 > 100 µM | KM12 > 100 µM | SK-MEL-28 > 100 µM | NCI-H23 > 100 µM | SF-539 > 100 µM | IGROV-1 > 100 µM | SR > 100 µM | NCI/ADR-RES > 100 µM | 786-0 > 100 µM
